One data set relates to naive mice. The data set is classed as in vivo, mouse. The settings on record: naive mice; for scratching (itch) after intradermal cheek injection / wiping (pain) after intradermal cheek injection: 1 mM, 5 μL. The method, then:
(§1) Behavioral Assessment for Scratching (Itch) and Wiping (Pain). Mice were shaved on the cheek or nape after a brief anesthesia with isoflurane. Before experiments, mice were habituated in small plastic chambers (14×18×12 cm) daily for two days. The room temperature and humidity remained stable for all the experiments. […] After the injection, the number of scratches in 60 min was counted. A scratch was counted when a mouse lifted its hind paw to scratch the shaved region and returned the paw to the floor or to the mouth. A bout of wiping was defined as a continuous wiping movement with a forepaw directing at the area of the injection area (Shimada and LaMotte, Pain 2008, 139, 681-687). Scratching and wiping behavior was videoed for 30 min or 60 min using Sony HDR-CX610 camera. The video was subsequently played back offline and the numbers of scratches and wipes were quantified in a blinded manner.

In the next data set the test system is DRG neurons. The experiment in a line: Calcium imaging in cultured DRG neurons of Pirt-GCaMP3 mice. The note with it: histamine 500 μM, CQ 1,000 μM, AITC 200 μM; for DRG neurons showing Ca2+ increase / responses: miR-711 50 μM, 544 neurons from 3 mice. In kind it is cell-based, mouse. The procedure:
(§2) Primary Cultures of Mouse and Human Sensory Neurons. […] Cells were mechanically dissociated with a flame polished Pasteur pipette in the presence of 0.05% DNase I (Sigma).
(§3) Ca^2+ Imaging. […] The imaging buffer includes 140 mM NaCl, 10 mM D-(+)-Glucose, 1 mM MgCl2, 2 mM CaCl2, 5 mM KCl, 10 mM HEPES, pH=7.4, osmolarity=320 mOsm/L. Calcium signals were measured using green emitted light in a 3 s interval. Ca ^2+ signal amplitudes were presented as ΔF/F0=(Ft−F0)/F0 as ratio of fluorescence difference (Ft−F0) to basal value (F0). The average fluorescence intensity in the baseline period was taken as F0. Ca ^2+ imaging was also analyzed in HEK293-TRPA1 cell line after loading cells with […] fura2-AM (Invitrogen) for 40 min in the Ca^2+ imaging buffer. Ca^2+ imaging protocol was a ratio metric method with 340/380-nm wavelength light for dual excitation. Data were presented as ΔR/R0, determined as the fraction ΔR (Rt−R0) of the increase of a given ratio over baseline ratio (R0).

For another data set, the system named is TG neurons. The data set is described as follows: Calcium imaging in TG neurons of Pirt-GCaMP3 mice. In kind it is cell-based, mouse. The note with it: histamine 500 μM, CQ 1000 μM, AITC 200 μM; for TG neurons responding (calcium): miR-711 50 μM, 204 neurons. The procedure: as §2, §3
The test system of the next data set is mice. The experiment in a line: Back model: intradermal nape injection, scratching. The settings on record: 1 mM, 10 μL. The data set is classed as in vivo, mouse. The method, then: as §1
A further data set deals with hTRPA1 (Homo sapiens, UniProt O75762). The data set is described as follows: Whole-cell patch clamp, inward currents in HEK293 cells expressing hTRPA1. The settings on record: bath application; miRNAs and core sequence 10 μM, AITC 50 μM. In kind it is cell-based. The method, then:
Cell Culture and Transfection. CD4^+ Myla cell line was cultured in RPMI 1640 media (GIBCO), supplemented with 2 mM Glutamine (GIBCO), 100 U/mL IL-2 (Sigma), 100 U/mL IL-4 (Sigma), and 10% human AB serum (Sigma). HuT 102 cell line was cultured in RPMI 1640 supplemented with pyruvate, HEPES, and 10% (v/v) fetal bovine serum (HyClone). HEK293-hTRPA1 stable cell line was cultured in MEM (GIBCO) containing 2 mM Glutamine, 4 μg/mL Blasticidin, 10% FBS (v/v). B16 and CHO cells were cultured in high glucose (4.5 g/L) Dulbecco's Modified Eagle's Medium (GIBCO) containing 10% (v/v) fetal bovine serum (GIBCO). Culture media were supplemented with 50 units/mL of penicillin and 50 μg/mL streptomycin, and cultures were maintained with 5% CO2 in 37° C. incubator. Transfection (2 μg cDNA) was performed with Lipofectamine™ 2000 Reagent (Invitrogen) at 80% confluency and the transfected cells were cultured in the same media for 48 hr before electrophysiological and biochemical studies.
Whole-Cell Patch Clamp Recordings in HEK293 Cells, CHO Cells, and DRG Neurons. Whole-cell patch clamp recordings were performed at room temperature using an Axopatch-200B amplifier (Axon Instruments) with a Digidata 1440B (Axon Instruments). In this study, we only examined small-diameter mouse DRG neurons (<25 μM) and small-diameter human DRG neurons (<55 μM). The patch pipettes were pulled from borosilicate capillaries (World Precision Instruments) using a P-97 Flaming/Brown micropipette puller (Sutter Instrument). Pipette resistance was 4-6 MΩ for whole-cell and outside-out recording. For inward current recordings in mouse and human DRG neurons, HEK293 cells, and CHO cells, the internal solution contains (in mM): 140 CsCl, 10 EGTA, 10 HEPES, and 2 Mg-ATP, adjusted to pH 7.3 with CsOH. Whole cell recordings were performed in an extracellular solution that contains (in mM): 140 NaCl, 5 KCl, 2 MgCl2, 10 HEPES, and 10 glucose, adjusted to pH 7.4 with NaOH and osmolarity to 300-310 mOsm. […] Action potential recordings were performed in small-diameter DRG neurons, with the following solutions: i) internal pipette solution contains: 126 mM K-gluconate, 10 mM NaCl, 1 mM MgCl2, 10 mM EGTA, 10 mM HEPES and 2 mM Na-ATP, adjusted to pH 7.4 with KOH and osmolarity to 295-300 mOsm), and ii) extracellular solution contains: 140 mM NaCl, 5 mM KCl, 2 mM MgCl2, 2 mM CaCl2, 10 mM HEPES, 10 mM glucose, adjusted to pH 7.4 with KOH.

A further data set deals with human DRG neurons. The data set is described as follows: Whole-cell patch clamp, inward currents in human DRG neurons. In kind it is cell-based. The settings on record: 10 μM; small diameters. The method, then: Non-diseased human DRGs were obtained from donors through National Disease Research Interchange (NDRI) with permission of exemption from the Duke University Institutional Review Board (IRB). Postmortem L3-L5 DRGs were dissected from 4 donors and delivered in ice cold culture medium to the laboratory at Duke University within 24-72 hr of the donor's death. Upon the delivery, DRGs were rapidly dissected from nerve roots and minced in a calcium-free HBSS (GIBCO). Human DRG cultures were prepared as previously reported (Chang et al., Neurosci. Bull. 2018, 34, 4-12; Han et al., Neuron 2016, 92, 1279-1293). DRGs were digested at 37° C. in a humidified CO2 incubator for 120 min with collagenase Type II (Worthington, 290 units/mg, 12 mg/mL final concentration) and dispase II (Roche, 1 unit/mg, 20 mg/mL) in PBS with 10 mM HEPES, pH adjusted to 7.4 with NaOH. DRGs were mechanically dissociated using fire-polished pipettes, filtered through a 100 μm nylon mesh and centrifuged (500 g for 5 min). The pellet was resuspended, plated on 0.5 mg/mL poly-D-lysine-coated glass coverslips, and grown in Neurobasal medium supplemented with 10% FBS, 2% B-27 supplement, and 1% penicillin/streptomycin. Whole-cell patch-clamp recordings in small (<[…]) human DRG neurons were conducted at room temperature using patch pipettes with resistances of 3-4 MΩ.
Whole-Cell Patch Clamp Recordings in HEK293 Cells, CHO Cells, and DRG Neurons. Whole-cell patch clamp recordings were performed at room temperature using an Axopatch-200B amplifier (Axon Instruments) with a Digidata 1440B (Axon Instruments). In this study, we only examined small-diameter mouse DRG neurons (<25 μM) and small-diameter human DRG neurons (<55 μM). The patch pipettes were pulled from borosilicate capillaries (World Precision Instruments) using a P-97 Flaming/Brown micropipette puller (Sutter Instrument). Pipette resistance was 4-6 MΩ for whole-cell and outside-out recording. […]

The next data set deals with CTCL mice. The experiment in a line: Mouse CTCL xenograft model of chronic itch. In kind it is in vivo. The settings on record: given 20 days after Myla cell inoculation; hsa-miR-711 inhibitor 100 μM, HC030031 200 μM, A967079 50 μM, peptides 2 mM. The procedure:
Mouse CTCL Xenograft Model of Chronic Itch. We developed a murine xenograft model of cutaneous T cell lymphoma (CTCL) using immune-deficient mice (NOD.CB17-Prkdcscid, 8-10 weeks old, male). CD4^+ MyLa cell line was purchased from Sigma (Ca #95051032). The cell line was established from a plaque biopsy of a person with mycosis fungoides stage II by inclusion of IL-2 and IL-4 in the culture medium. CTCL was generated via intradermal injection of CD4^+ Myla cells (1×10^5 cells/μl, 100 μL) on the nape of the neck. Tumor growth was assessed for 40 days by measurements of tumor diameters.
as §1
Generation of Myla Stable Cell Line Expressing miR-711 Inhibitor. CD4^+ Myla cells were plated at a density of 2×10^5 cells/mL in 2 mL culture media in 6-well plates. For each well, 20 μL of the MISSION Lenti microRNA Inhibitor (hsa-miR-711) lentivirus (Sigma) with a titer of 2.6×10^7 Tu/mL were added. Cell mixtures were incubated at 37° C. for 48 hr, washed with PBS three times, and re-suspended in fresh culture media, and 24 hr later, 1 μg/mL puromycin was added to the cells to select stably transduced cell populations. We tried to grow and passage the cells as much as necessary (usually 3 days) and maintained selection pressure by keeping 1 μg/mL puromycin in the medium. After 4 weeks, a large number of the cells were killed; the remaining cells retained the expression of the plasmid, which stably integrates into the genome of the targeted cells. These cells were used for inoculation to generate the CTCL model for testing the effects of miR-711 inhibitor on chronic itch and tumor growth.

Sequence of hTRPA1 (O75762 whole entry): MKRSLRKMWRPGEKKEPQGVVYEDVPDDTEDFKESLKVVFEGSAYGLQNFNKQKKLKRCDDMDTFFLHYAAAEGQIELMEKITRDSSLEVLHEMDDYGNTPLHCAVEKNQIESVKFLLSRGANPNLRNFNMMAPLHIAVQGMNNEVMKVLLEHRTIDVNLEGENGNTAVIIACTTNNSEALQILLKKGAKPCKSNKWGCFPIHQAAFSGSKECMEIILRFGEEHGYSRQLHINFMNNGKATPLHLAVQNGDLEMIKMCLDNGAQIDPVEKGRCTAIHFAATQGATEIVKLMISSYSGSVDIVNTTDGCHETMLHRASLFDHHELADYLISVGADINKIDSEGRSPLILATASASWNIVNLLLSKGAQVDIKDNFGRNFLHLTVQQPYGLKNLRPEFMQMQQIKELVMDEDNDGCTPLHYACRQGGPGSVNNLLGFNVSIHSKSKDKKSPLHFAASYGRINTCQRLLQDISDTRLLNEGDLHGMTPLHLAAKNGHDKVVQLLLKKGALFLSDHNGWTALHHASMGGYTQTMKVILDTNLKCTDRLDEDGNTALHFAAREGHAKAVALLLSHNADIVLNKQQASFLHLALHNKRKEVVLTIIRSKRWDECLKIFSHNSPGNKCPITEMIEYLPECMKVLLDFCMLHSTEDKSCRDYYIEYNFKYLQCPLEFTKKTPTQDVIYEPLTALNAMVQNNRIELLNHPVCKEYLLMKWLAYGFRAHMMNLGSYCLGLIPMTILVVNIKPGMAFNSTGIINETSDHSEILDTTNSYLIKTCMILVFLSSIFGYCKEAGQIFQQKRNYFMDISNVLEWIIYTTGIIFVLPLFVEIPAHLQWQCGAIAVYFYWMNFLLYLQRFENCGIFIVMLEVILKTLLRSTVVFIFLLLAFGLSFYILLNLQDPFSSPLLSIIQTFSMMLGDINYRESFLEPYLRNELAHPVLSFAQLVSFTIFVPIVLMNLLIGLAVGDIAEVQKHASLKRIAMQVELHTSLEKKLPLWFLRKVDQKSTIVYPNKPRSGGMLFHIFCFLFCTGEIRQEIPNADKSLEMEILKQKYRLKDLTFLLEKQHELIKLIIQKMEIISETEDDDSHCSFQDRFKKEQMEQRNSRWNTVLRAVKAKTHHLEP

Turning to “m1: mutant of miR-711: aaaacccggggagagauguaag (SEQ ID NO: 11) (AAAACCCGGGGAGAGAUGUAAG; listed as RNA, chemistry not given here)”, the “scratching (itch) after intradermal cheek injection” value (shortened to “scratching (itch)”) in the data set on naive mice was “marked reduction in scratching”.
In the case of `CCN(CC)CCCC(C)Nc1ccnc2cc(Cl)ccc12` (centres unmarked) [CQ, chloroquine], in the data set with DRG neurons, the “miR-711-responsive DRG neurons that also responded” value is listed as 66.7% and the “DRG neurons showing Ca2+ increase / responses” value is on record as 5.1%. Further, in the data set with TG neurons, the “miR-711-responsive TG neurons that also responded” value is recorded as 76% and the “TG neurons responding (calcium)” value is on record as 9.3%.
For the molecule “miR-326: mmu-miR-326: gggggcagggccuuugugaaggcg (SEQ ID NO: 8) (GGGGGCAGGGCCUUUGUGAAGGCG; listed as RNA, chemistry not given here)”, the “wiping (pain) after intradermal cheek injection” value (“wiping (pain)” below) with naive mice was “Neither did”. In addition, in the data set on mice, the “scratching after intradermal injection on the nape of neck” value was “no effects”.
For the molecule “GGGACCC: mmu-miR-711 core: gggaccc (SEQ ID NO: 1) (listed as RNA, chemistry not given here)”, in the data set on naive mice, the “scratching after intradermal injection of 7-nucleotide oligos” value is “sufficient to elicit scratching” and the “wiping after intradermal injection of 7-nucleotide oligos” value is on record as “not wiping”. For the same molecule, the inward currents entry with hTRPA1 is “inward currents induced”.
Consider “miR-155: mmu-miR-155: uuaaugcuaauugugauaggggu (SEQ ID NO: 7) (UUAAUGCUAAUUGUGAUAGGGGU; listed as RNA, chemistry not given here)”, for which, in the data set on naive mice, the “wiping (pain)” value was “Neither did”. Also, the “scratching after intradermal injection on the nape of neck” value in the data set with mice was “no effects”.
For the molecule “hsa-miR-711: hsa-miR-711: gggacccagggagagagacguaag (SEQ ID NO: 9) (GGGACCCAGGGAGAGAGACGUAAG; listed as RNA, chemistry not given here)”, in the data set on naive mice, the “scratching (itch)” value is listed as “able to evoke pruritus” and the “wiping (pain)” value was “failed to elicit wiping”. For the same molecule, the “inward currents in human DRG neurons” value in the data set with human DRG neurons was “evoked TRPA1-dependent inward currents”.
Turning to “m2: mutant of miR-711: gggaaaaggggagagauguaag (SEQ ID NO: 12) (GGGAAAAGGGGAGAGAUGUAAG; listed as RNA, chemistry not given here)”, the “scratching (itch)” value in the data set on naive mice was “marked reduction in scratching”.
Take “hsa-miR-642b-3p: hsa-miR-642b-3p: agacacauuuggagagggaccc (SEQ ID NO: 10) (AGACACAUUUGGAGAGGGACCC; listed as RNA, chemistry not given here)”: in the data set on naive mice, the “scratching (itch)” value was “resulted in pruritus” and the “wiping (pain)” value was “failed to elicit wiping”. Further, the “inward currents in human DRG neurons” value in the data set with human DRG neurons is reported as “induced similar inward currents”.
Consider `NCCc1c[nH]cn1` [histamine], for which, in the data set on DRG neurons, the “miR-711-responsive DRG neurons that also responded” value stood at 61.9% and the “DRG neurons showing Ca2+ increase / responses” value is 5.5%. Also, in the data set on TG neurons, the “miR-711-responsive TG neurons that also responded” value worked out at 52% and the “TG neurons responding (calcium)” value is reported as 6.9%.
Regarding “AAAAAAA: Mmu-miR-711 mutant: aaaaaaa (SEQ ID NO: 17) (listed as RNA, chemistry not given here)”, in the data set with naive mice, the “scratching after intradermal injection of 7-nucleotide oligos” value was “did not affect” and the “wiping after intradermal injection of 7-nucleotide oligos” value was “did not affect”.
As to `CC(C)c1ccc(NC(=O)Cn2cnc3c2c(=O)n(C)c(=O)n3C)cc1` [HC30031, 2-(1,3-Dimethyl-2,6-dioxo-1,2,3,6-tetrahydro-7H-purin-7-yl)-N-(4-isopropylphenyl)acetamide], the “effect on CTCL-evoked chronic itch” value in the data set on CTCL mice is given as “suppressed”.

For the origin of these results see patent US20210283163A1, “COMPOSITIONS AND METHODS FOR THE TREATMENT OF ACUTE AND CHRONIC PRURITIS” (Duke University, priority 2018, published 2021).
